The values below come from PubChem BioAssay AID248 (DTP/NCI, 2004).

The assay concerns L1210 leukemia ip in BDF1 mice, survival T/C. The assay can be described thus: NCI In Vivo Anticancer Drug Screen. Data for tumor model L1210 Leukemia (intraperitoneal) in B6D2F1 (BDF1) mice. The conditions noted are these: endpoint: mean survival time, higher = longer survival. The gist of the method:
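Survival endpoint. Drug-treated group vs vehicle group, expressed as T divided by C. Tumor passaged by transplantation.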

[1] abbreviates: dose: 100.0 mg/kg/injection, schedule: Q04DX002 (ip), vehicle: Klucel (hydroxypropylcellulose) (HPC).
Setting [2] is: dose: 100.0 mg/kg/injection, schedule: Q04DX003 (ip), vehicle: saline with Tween-80.
The mark [3] stands for this setting: dose: 200.0 mg/kg/injection, schedule: Q04DX003 (ip), vehicle: saline with Tween-80.
Setting [4] is: dose: 400.0 mg/kg/injection, schedule: Q04DX003 (ip), vehicle: saline with Tween-80.
Where [5] appears, read: dose: 50.0 mg/kg/injection, schedule: Q01DX001 (ip), vehicle: saline.
The mark [6] stands for this setting: dose: 100.0 mg/kg/injection, schedule: Q01DX001 (ip), vehicle: saline.
The mark [7] stands for this setting: dose: 200.0 mg/kg/injection, schedule: Q01DX001 (ip), vehicle: saline.
[8] abbreviates: dose: 400.0 mg/kg/injection, schedule: Q01DX001 (ip), vehicle: saline.
Setting [9] is: dose: 100.0 mg/kg/injection, schedule: Q01DX009 (ip), vehicle: saline.
[10] abbreviates: dose: 100.0 mg/kg/injection, schedule: Q04DX003 (ip), vehicle: saline.
The mark [11] stands for this setting: dose: 200.0 mg/kg/injection, schedule: Q01DX009 (ip), vehicle: saline.
Where [12] appears, read: dose: 200.0 mg/kg/injection, schedule: Q04DX003 (ip), vehicle: saline.
Setting [13] is: dose: 400.0 mg/kg/injection, schedule: Q04DX003 (ip), vehicle: saline.
Where [14] appears, read: dose: 100.0 mg/kg/injection, schedule: Q01DX009 (ip), vehicle: Klucel (hydroxypropylcellulose) (HPC).
The mark [15] stands for this setting: dose: 200.0 mg/kg/injection, schedule: Q01DX009 (ip), vehicle: Klucel (hydroxypropylcellulose) (HPC).
The mark [16] stands for this setting: dose: 400.0 mg/kg/injection, schedule: Q01DX009 (ip), vehicle: Klucel (hydroxypropylcellulose) (HPC).

Where “and” joins values, the source holds several entries; their conditions need not be identical. Equal values may be shown once. Inconclusive results and toxic doses are left out.

`CN(C)C(=S)SCc1c(O)c(C(C)(C)C)cc2cc(C(C)(C)C)ccc12`: the T/C runs as follows: under setting [1], 105 % of control; (dose: 200.0 mg/kg/injection, schedule: Q04DX002 (ip), vehicle: Klucel (hydroxypropylcellulose) (HPC)) 110 % of control; (dose: 400.0 mg/kg/injection, schedule: Q04DX002 (ip), vehicle: Klucel (hydroxypropylcellulose) (HPC)) 102 % of control.

On to `CC(=O)N(C1=C(N(CCO)CCO)C(=O)c2ccccc2C1=O)c1ccccc1`, for which the T/C runs as follows: under setting [2], 106 % of control; under setting [3], 103 % of control; under setting [4], 101 % of control.

On to `CN(C=O)c1cc([N+](=O)[O-])ccc1OCc1ccccc1`, for which the T/C is 100 % of control under setting [5], 96 % of control under setting [6], 92 % of control under setting [7] and 94 % of control under setting [8].

In the case of `O=C(c1ccccn1)N1CCOCC1`, the T/C is 101 % of control under setting [6]; 98 % of control and 109 % of control under setting [9]; 96 % of control and 116 % of control (dose: 100.0 mg/kg/injection, schedule: Q04DX002 (ip), vehicle: saline); 98 % of control under setting [10]; 105 % of control under setting [7]; 103 % of control and 104 % of control under setting [11]. For the same compound, the T/C runs as follows: (dose: 200.0 mg/kg/injection, schedule: Q04DX002 (ip), vehicle: saline) 95 % of control and 97 % of control; under setting [12], 98 % of control; under setting [8], 97 % of control; (dose: 400.0 mg/kg/injection, schedule: Q01DX009 (ip), vehicle: saline) 95 % of control and 103 % of control; (dose: 400.0 mg/kg/injection, schedule: Q04DX002 (ip), vehicle: saline) 96 % of control and 103 % of control; under setting [13], 107 % of control.

In the case of `CCCCCCOC(=O)N1CCN(c2ccccc2)CC1`, the T/C (dose: 50.0 mg/kg/injection, schedule: Q01DX009 (ip), vehicle: saline) was 106 % of control; the T/C under setting [9] was 92 % of control; the T/C under setting [11] was 90 % of control.

Consider `NC(=O)c1c(Br)c(Br)c(Br)c(Br)c1C(=O)O` (tested in a mixture with another compound), for which the T/C reads like this: (dose: 50.0 mg/kg/injection, schedule: Q04DX003 (ip), vehicle: saline with Tween-80) 96 % of control; under setting [2], 91 % of control and 100 % of control and 90 % of control; under setting [3], 93 % of control and 98 % of control; under setting [4], 93 % of control and 90 % of control.

For the compound `O=C(CCC(=O)Oc1ccc(S(=O)(=O)F)cc1)Oc1ccc(S(=O)(=O)F)cc1`, the T/C by setting is: under setting [10], 92 % of control; under setting [12], 118 % of control; under setting [13], 103 % of control.

As to `Clc1ccc(CSc2ncnc3nc[nH]c23)cc1Cl`, the T/C under setting [2] is 93 % of control, the T/C under setting [3] was 94 % of control and the T/C under setting [4] is 104 % of control.

As for `Cc1cc(C(C(N)=O)c2ccccc2)ccc1N(CCCl)CCCl` (stereo not drawn), the T/C was 116 % of control (dose: 2.0 mg/kg/injection, schedule: Q01DX009 (ip), vehicle: carboxymethylcellulose (CMC)); 121 % of control (dose: 3.7 mg/kg/injection, schedule: Q01DX015 (ip), vehicle: carboxymethylcellulose (CMC)); 124 % of control (dose: 4.0 mg/kg/injection, schedule: Q01DX009 (ip), vehicle: carboxymethylcellulose (CMC)); 104 % of control (dose: 7.2 mg/kg/injection, schedule: Q04DX003 (ip), vehicle: acetone); 153 % of control (dose: 20.0 mg/kg/injection, schedule: Q01DX009 (ip), vehicle: Klucel (hydroxypropylcellulose) (HPC)); 109 % of control and 121 % of control (dose: 21.0 mg/kg/injection, schedule: Q04DX003 (ip), vehicle: acetone). The T/C was 112 % of control (dose: 21.0 mg/kg/injection, schedule: Q04DX003 (ip), vehicle: saline); 118 % of control (dose: 33.0 mg/kg/injection, schedule: Q04DX003 (ip), vehicle: saline); 86 % of control (dose: 37.5 mg/kg/injection, schedule: Q01DX009 (ip), vehicle: saline with Tween-80); 101 % of control (dose: 40.0 mg/kg/injection, schedule: Q01DX009 (ip), vehicle: Klucel (hydroxypropylcellulose) (HPC)); 95 % of control (dose: 45.0 mg/kg/injection, schedule: Q01DX015 (ip), vehicle: carboxymethylcellulose (CMC)); 120 % of control (dose: 49.0 mg/kg/injection, schedule: Q04DX003 (ip), vehicle: acetone). Also, the T/C reads like this: (dose: 50.0 mg/kg/injection, schedule: Q01DX001 (ip), vehicle: carboxymethylcellulose (CMC)) 114 % of control; (dose: 50.0 mg/kg/injection, schedule: Q04DX003 (ip), vehicle: acetone) 123 % of control; (dose: 50.0 mg/kg/injection, schedule: Q04DX003 (ip), vehicle: saline) 106 % of control; (dose: 64.0 mg/kg/injection, schedule: Q01DX009 (ip), vehicle: carboxymethylcellulose (CMC)) 106 % of control; (dose: 66.0 mg/kg/injection, schedule: Q01DX001 (ip), vehicle: saline) 116 % of control; (dose: 66.0 mg/kg/injection, schedule: Q04DX003 (ip), vehicle: acetone) 112 % of control. In addition, the T/C was 123 % of control (dose: 88.8 mg/kg/injection, schedule: Q01DX001 (ip), vehicle: carboxymethylcellulose (CMC)); 112 % of control (dose: 100.0 mg/kg/injection, schedule: Q01DX001 (ip), vehicle: carboxymethylcellulose (CMC)); 100 % of control under setting [6]; 96 % of control (dose: 150.0 mg/kg/injection, schedule: Q04DX003 (ip), vehicle: acetone); 152 % of control (dose: 300.0 mg/kg/injection, schedule: Q01DX001 (ip), vehicle: carboxymethylcellulose (CMC)).

As for `NCCC1CNCCN1.[Cl][Pd]([Cl])([Cl])[Cl]` (stereo not drawn), the T/C reads like this: (dose: 12.5 mg/kg/injection, schedule: Q01DX001 (ip), vehicle: saline) 108 % of control; (dose: 25.0 mg/kg/injection, schedule: Q01DX001 (ip), vehicle: saline) 108 % of control; under setting [5], 103 % of control; (dose: 100.0 mg/kg/injection, schedule: Q01DX001 (ip), vehicle: DMSO) 98 % of control.

Take `Cc1no[n+]([O-])c1-c1nc(SCC(=O)NN)n[nH]1`: the T/C is, setting by setting: (dose: 25.0 mg/kg/injection, schedule: Q04DX002 (ip), vehicle: Klucel (hydroxypropylcellulose) (HPC)) 91 % of control; (dose: 50.0 mg/kg/injection, schedule: Q04DX002 (ip), vehicle: Klucel (hydroxypropylcellulose) (HPC)) 95 % of control; under setting [1], 102 % of control.

With `O=C1c2ccccc2-c2c(N=Cc3ccc4c(c3)OCO4)c(Br)cc(Br)c21`, the T/C is 93 % of control (dose: 100.0 mg/kg/injection, schedule: Q01DX001 (ip), vehicle: other); 98 % of control (dose: 200.0 mg/kg/injection, schedule: Q01DX001 (ip), vehicle: other); 95 % of control (dose: 400.0 mg/kg/injection, schedule: Q01DX001 (ip), vehicle: other).

With `O=C(Nc1ccccn1)NC1CCCCC1`, the T/C under setting [14] was 98 % of control, the T/C under setting [15] was 105 % of control and the T/C under setting [16] was 98 % of control.

Take `CNC(=O)Nc1nc2ccccc2[nH]1`: the T/C is 103 % of control under setting [6]; 109 % of control under setting [2]; 115 % of control under setting [7]; 109 % of control under setting [3]; 100 % of control under setting [8].

Regarding `CCCN(CCC)c1ccc(N=Nc2cc(Cl)ccc2Cl)cc1`, the T/C runs as follows: under setting [2], 91 % of control; under setting [3], 93 % of control; under setting [4], 91 % of control.

With `COc1ccc(OC)c(NC(=O)Nc2cc(OC)c(Cl)cc2OC)c1`, the T/C runs as follows: under setting [14], 105 % of control; under setting [15], 94 % of control; under setting [16], 87 % of control.

Consider `CCS(=O)(=O)C(S(C)(=O)=O)S(=O)(=O)C(C)C` (stereo not drawn), for which the T/C reads like this: (dose: 100.0 mg/kg/injection, schedule: Q04DX003 (ip), vehicle: Klucel (hydroxypropylcellulose) (HPC)) 92 % of control; (dose: 200.0 mg/kg/injection, schedule: Q04DX003 (ip), vehicle: Klucel (hydroxypropylcellulose) (HPC)) 96 % of control; (dose: 400.0 mg/kg/injection, schedule: Q04DX003 (ip), vehicle: Klucel (hydroxypropylcellulose) (HPC)) 89 % of control.

Regarding `Cc1ccc(NN)c(Br)c1`, the T/C under setting [10] was 104 % of control, the T/C under setting [12] was 106 % of control and the T/C under setting [13] is 101 % of control.
